Test results as given in patent US5795977A, “Water soluble adenosine kinase inhibitors” (Metabasis Therapeutics, Inc., priority 1996, dated 1998).

Experiments:
[1] = test system: male SA rats (maximal electroshock seizures); experiment: Anticonvulsant activity, maximal electroshock seizures (MES); assay type: in vivo; details: rat, po, fasted; >> = no activity at the stated dose
Procedure: The anticonvulsant activity of the tested compounds was evaluated in male SA rats (100-150g, Simonsen) using the maximal electroshock (MES) model described in Swinyard et al., Antiepileptic Drugs, 3d Ed. at 85-102 (Levy, et al., eds.), NY: Raven Press (1989). The rats were maintained on a 12/12 light/dark cycle in temperature controlled facilities with free access to food and water. For p.o. administration, the animals are fasted overnight, prior to the experiment. One to two hours prior to seizure testing, the animals were injected interperitoneally (ip) or orally (per os, po) with one of various doses of test compound dissolved in DMSO or PEG 400.
This endpoint was expressed as the percentage of animals in which the response was inhibited.

Rats (carrageenan paw) = experiment: Anti-inflammatory activity, carrageenan paw swelling; assay type: in vivo; details: rat, 10 mg/kg, swelling after 3 hours
Procedure: Carrageenan (Type λ) was suspended in sterile PBS at 1% (w/v), autoclaved for 30 minutes, and stored at room temperature. Rats were pretreated with vehicle or AK inhibitor (10 mg/kg) by oral gavage or i.p. administration and the volume of the left hind paw was measured using a water displacement plethysmometer (Stoelting Co., Wood Dale, Ill.). One hour after oral treatment or 30 minutes after i.p. treatment, the rats were briefly anesthetized, and 0.1 ml of the carrageenan solution was injected subcutaneously into the planar surface of the left hind paw. The ensuing paw swelling was measured by plethysmometry after 3 hours. The paw volume in millileters was […]. Data are presented in Table 2 as the percent inhibition of paw swelling in AK inhibitor treated animals, compared to vehicle treated control animals.

[2] = molecular target: partially purified pig heart adenosine kinase or recombinant human adenosine kinase; experiment: AK inhibition; assay type: biochemical; details: 0.5 μM [U-14C] adenosine, pH 7.0, 37° C., 20 minutes
Procedure: Adenosine kinase activity was measured essentially as described by Yamada et al. Biochim. Biophys. Acta 660, 36-43 (1988) with a few minor modifications. Assay mixtures contained 50 mM TRIS-maleate buffer, pH 7.0, 0.1% BSA, 1 mM ATP 1 mM MgCl2, 0.5 μM [U-^14 C] adenosine (400-600 mCi/mmol) and varying duplicate concentrations of inhibitor. […] The amount of ^14 C-AMP was quantified by scintillation counting.

Rats (formalin paw) = experiment: Formalin paw assay; assay type: in vivo; details: rat, oral 90 min prior, 10.3-30 min post-formalin, vs vehicle
Procedure: In this assay, injection of formalin, an irritant, into the hindpaw of rats typically evokes a biphasic response of pain-related behaviors. Phase 1 of the response which is brief, lasting approximately 0-5 min post-injection,is followed by a more prolonged phase 2, lasting approximately 10-80 min post-injection. Phase 1 behavior is thought to be a direct effect of the irritant on nociceptors at the injection site while phase 2 behavior is thought to include a hyperalgesic component mediated by sensitization of neuronal elements within the spinal cord. Studies from other laboratories have found the first portion of Phase 2 (sometimes referred to as Phase 2a) to be most responsive to pharmacological manipulation.
Rats (male, Simonsen) weighing between 100-200 g, are used in the present experiments. For screening purposes drugs are administered orally 90 min prior to initiation of formalin test. At designated intervals the animals in groups of 4 are placed individually in a small animal restrainer with the right hindpaw accessible through a hole in the bottom of the restrainer. The formalin paw assay is initiated by the injection using a 30G needle of 50 ul of a 5% formalin solution in saline into the right plantar surface of each hindpaw. […]
Scores are continuously recorded directly onto an Excel spreadsheet.

Water solubility = assay type: physicochemical; details: suitable pH for i.v. administration (e.g. pH 4 to 10)
Procedure: The sample was sonicated for a period of up to 20 minutes. If a solution was not obtained, further solvent was added and the process was repeated until a clear solution was obtained, and the results were recorded. Solutions used were 50 mM potassium biphthalate (pH 4); 100 mM glycine (pH 9); 25 mM sodium carbonate and 25 mM sodium bicarbonate (pH 10); or deionized water (DI).

| SMILES | ED50 [1] | Carrageenan Paw (% inhibition) ip (Rats (carrageenan paw); ip) | Carrageenan Paw (% inhibition) po (Rats (carrageenan paw); oral gavage) | IC50 [2] | Phase 2 composite score, percent inhibition (Rats (formalin paw)) | water solubility (Water solubility) |
| --- | --- | --- | --- | --- | --- | --- |
| C[C@H]1O[C@@H](n2cc(-c3ccccc3)c3c(Nc4ccc(CCN5CCOCC5)cc4)ncnc32)[C@H](O)[C@@H]1O [Compound 3, 4-N-[4-(2-(4-morpholino)ethyl)phenyl]amino-5-phenyl-7-(5-deoxy-β-D-ribofuranosyl)pyrrolo[2,3-d]pyrimidine] | > 10 mg/kg | 19.5% | 9.8% | 2 nM | 31% |  |
| C[C@H]1O[C@@H](n2cc(-c3ccccc3)c3c(Nc4ccccc4)ncnc32)[C@H](O)[C@@H]1O [5-phenyl-4-N-phenylamino-7-(5-deoxy-1-β-D-ribofuranosyl)pyrrolo[2,3-d]pyrimidine] |  |  |  |  |  | less than 20 μg/ml |
